Test results from patent US20060003980A1, “Cobalt(II) complexes as protein tyrosine kinase inhibitors” (priority 2004, published 2006).
Entries after “also recorded” stand apart in the source; their conditions may differ. Like-named read-outs stand apart in the source and are kept apart here.

What was measured:
Src = Src (Homo sapiens, UniProt P12931); assay: Tyrosine kinase activity of Src using poly E4Y and 32P-ATP; assay type: biochemical
Experimental: (§1) Recombinant human Src was expressed using the baculovirus-insect cell system and purified as published (Budde et al., 1993). Recombinant Csk and the FGF receptor (FGFr) were expressed as glutathione-S-transferase fusion proteins using the pGEX expression vector and E. coli, and purified as described (Sun et al., 1995).
(§2) The tyrosine kinase activity of Src, Csk and FGFr was determined using poly E4Y and ^32P-ATP. Briefly, enzymes were assayed in a reaction mixture consisting of 0.15 M EPPS-NaOH (pH 8.0) with 6 mM MgCl2, 0.2 mM γ^32P-ATP (0.2-0.4 mCi/μmol), 10% glycerol, 0.1% Triton X-100, and poly E4Y. Poly E4Y is a synthetic peptide whose phosphorylation is measured in this assay by the addition of the radioactively labeled phosphate from the ATP (Budde et al., 1994). For screening assays, 50 μg/ml poly E4Y was used.

FGF receptor (FGFr) = FGF receptor (FGFr) (Homo sapiens, UniProt P11362); assay: Tyrosine kinase activity of FGFr using poly E4Y and 32P-ATP; assay type: biochemical
Sequence of FGF receptor (FGFr) (P11362 398-822): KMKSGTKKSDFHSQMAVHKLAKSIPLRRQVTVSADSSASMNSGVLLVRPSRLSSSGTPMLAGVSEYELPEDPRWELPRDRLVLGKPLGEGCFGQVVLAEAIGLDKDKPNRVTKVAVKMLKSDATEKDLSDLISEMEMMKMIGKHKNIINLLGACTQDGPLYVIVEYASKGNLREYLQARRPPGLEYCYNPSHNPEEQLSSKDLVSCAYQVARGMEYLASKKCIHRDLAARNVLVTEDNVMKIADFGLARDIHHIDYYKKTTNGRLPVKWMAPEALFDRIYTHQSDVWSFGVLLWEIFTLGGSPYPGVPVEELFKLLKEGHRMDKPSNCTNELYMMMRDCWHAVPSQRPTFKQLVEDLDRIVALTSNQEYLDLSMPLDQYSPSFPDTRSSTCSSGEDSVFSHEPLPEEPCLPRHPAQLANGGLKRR
Experimental: Recombinant human Src was expressed using the baculovirus-insect cell system and purified as published (Budde et al., 1993). Recombinant Csk and the FGF receptor (FGFr) were expressed as glutathione-S-transferase fusion proteins using the pGEX expression vector and E. coli, and purified as described (Sun et al., 1995). The tyrosine kinase activity of Src, Csk and FGFr was determined using poly E4Y and ^32P-ATP. […] Poly E4Y is a synthetic peptide whose phosphorylation is measured in this assay by the addition of the radioactively labeled phosphate from the ATP (Budde et al., 1994). For screening assays, 50 μg/ml poly E4Y was used.

Csk = biological target: T1, Csk (Homo sapiens, UniProt P41240); assay: Tyrosine kinase activity of Csk using poly E4Y and 32P-ATP; assay type: biochemical
T1 construct: GST (glutathione-S-transferase); made in house; host or cells: E. coli (pGEX vector)
Experimental: as §1, §2

cell growth = assay: Cell growth inhibition (FIG. 1); assay type: cell-based
Text: FIG. 1 graphically illustrates that a stable cobalt-tyrosineamide identified as complex no.
This indicates a requirement for both the tyrosine amide moiety and for the metal moiety.

[1] = * = Extrapolated value from the graph

| IC50 (Src) [µM] | IC50 (FGF receptor (FGFr)) [µM] | Compound | also measured |
| --- | --- | --- | --- |
| 79 | – | N[C@@H]1CCCC[C@H]1N.[Cl-].[Cl-].[Co+2] (racemic) [Complex 30] | IC50 (FGF receptor (FGFr); [1]): 123 µM |
| – | 24 | NCCN.[Cl-].[Co+2].[OH-] [Complex 24] | IC50 (Src; [1]): 215 µM |
| 9 | 14 | Nc1ccccc1N.[Cl-].[Cl-].[Co+2] [Complex 25] | IC50 (Csk; [1]): 210 µM |
| 65 | 39 | NCCNc1cccc2ccccc12.[Cl-].[Cl-].[Co+2] [Complex 26] | – |
| – | 182 | O=C([O-])c1ccccc1O.O=C([O-])c1ccccc1O.[Co+2] [Complex 32] | – |
| – | 125 | O=C([O][Co][O]C(=O)c1ccccc1S)c1ccccc1S [Complex 34] | – |
| 108 | 3 | [Co+2].[O-]c1ccccc1C=NCCN=Cc1ccccc1[O-] [Complex 35, Co[N,N-bis(salicylidene)ethylenediamine]] | IC50 (Csk): 92 µM |
| 28 | 1 | [Co+2].[O-]c1ccccc1C=Nc1ccccc1N=Cc1ccccc1[O-] [Complex 36, Co[N,N-bis(salicylidene)1,2-phenylenediamine]] | IC50 (Csk; [1]): 128 µM |
| 66 | – | [Cl][Co]1([Cl])[PH](c2ccccc2)(c2ccccc2)CC[PH]1(c1ccccc1)c1ccccc1 [Complex 38] | – |
| 95 | 41 | CN1CCCN=Cc2ccccc2[O][Co][O]c2ccccc2C=NCCC1 [Complex 40] | – |
| 105 | – | O=C(C=C(O)C(F)(F)F)C(F)(F)F [Complex 42] | – |
| 47 | 83 | CC(=O)C=C([O-])c1ccccc1.CC(=O)C=C([O-])c1ccccc1.[Co+2] [Complex 43] | – |

More lines, now with the values behind:

| Compound | IC50 (Src) [µM] | IC50 (FGF receptor (FGFr)) [µM] | also measured |
| --- | --- | --- | --- |
| C[SH]1CCC(N)C(=O)[N](O)[Co]1[OH] (racemic) [Complex 4] | – | – | IC50 (Src; [1]): 176 µM |
| NC(Cc1ccc(O)cc1)C(=O)NO.[Co+2].[O-][Cl+3]([O-])([O-])[O-].[O-][Cl+3]([O-])([O-])[O-] (centres unmarked) [Complex 1] | – | 14 | – |
| NCC(=O)NO.[OH][Co][OH] [Complex 5] | – | – | IC50 (Src; [1]): 259 µM |
| NCCC(=O)NO.[OH][Co][OH] [Complex 8] | 100 | – | IC50 (Csk; [1]): 150 µM |
| NC(=O)C(N)Cc1c[nH]c2ccccc12.[O-][Cl+3]([O-])([O-])[O][Co][O][Cl+3]([O-])([O-])[O-] (centres unmarked) [Complex 13] | 24 | 54 | IC50 (Csk): 77 µM |
| NC(=O)C(N)Cc1ccc(O)cc1.[Cl-].[Cl-].[Co+2] (centres unmarked) [Complex 14] | 28 | 20 | – |
| NC(=O)C(N)Cc1ccc(O)cc1.[OH][Co][Cl] (centres unmarked) [Complex 15] | 46 | – | IC50 (FGF receptor (FGFr); [1]): 180 µM; IC50 (Csk; [1]): 330 µM |
| CC(=O)[O-].NC(=O)C(N)Cc1ccc(O)cc1.[Co+2].[OH-] (centres unmarked) [Complex 16] | – | – | IC50 (Src; [1]): 285 µM |
| NCC(N)=O.[Cl-].[Cl][Co][Cl].[Na+] [Complex 17] | 56 | 22 | IC50 (Csk; [1]): 218 µM |
| CC(C)CC(N)C(N)=O.[Cl-].[Cl-].[Co+2] (centres unmarked) [Complex 18] | – | 38 | IC50 (Csk; [1]): 211 µM; IC50 (Src; [1]): 105 µM |
| CC(C)CC(N)C(N)=O.[Cl-].[Cl-].[Co+2] (centres unmarked) [Complex 19] | 35 | 45 | – |
| NC(=O)CCC(N)C(=O)[O][Co][Cl] (centres unmarked) [Complex 20] | 57 | 100 | IC50 (Csk; [1]): 281 µM |
| NC(=O)CCC(N)C(=O)[O][Co][Cl] (centres unmarked) [Complex 21] | 58 | 93 | IC50 (Csk; [1]): 389 µM |
| NC(=O)CCC(N)C(N)=O.[Cl][Co][Cl] (centres unmarked) [Complex 22] | 71 | 46 | IC50 (Csk; [1]): 361 µM |
| N[C@H](c1ccccc1)[C@@H](N)c1ccccc1.N[C@H](c1ccccc1)[C@@H](N)c1ccccc1.[Cl][Co][Cl].[Cl][Co][Cl] [Complex 27] | 7 | 17 | IC50 (Csk): 59 µM |
| N[C@H](c1ccccc1)[C@H](N)c1ccccc1.N[C@H](c1ccccc1)[C@H](N)c1ccccc1.[Cl][Co][Cl].[Cl][Co][Cl] [Complex 31] | 55 | 98 | IC50 (Csk): 50 µM |
| O=C(NO)c1ccccc1O.O=C(NO)c1ccccc1O.[Cl][Co][Cl] [Complex 33] | 6 | 2 | IC50 (Csk): 92 µM |
| [Cl][Co]([Cl])([PH](c1ccccc1)(c1ccccc1)c1ccccc1)[PH](c1ccccc1)(c1ccccc1)c1ccccc1 [Complex 37] | – | 76 | – |
| CC(=O)C=C(C)[O-].CC(=O)C=C(C)[O-].[Co+2] [Complex 41] | – | – | IC50 (FGF receptor (FGFr); [1]): 233 µM; IC50 (Src; [1]): 177 µM |
| O=Cc1ccccc1[O-].O=Cc1ccccc1[O-].[Co+2] [Complex 44, Co(salicylaldehyde)2] | 113 | – | IC50 (FGF receptor (FGFr); [1]): 148 µM |
| NC(=O)[C@@H](N)Cc1ccc(O)cc1 [tyrosine amide] | – | – | cell growth inhibition (cell growth): not inhibitory; also recorded: neither free metal nor the tyrosine amide were inhibitory |
| Co[N,N-bis(salicylidene)dianiline] [Complex 39] | – | – | IC50 (FGF receptor (FGFr); [1]): 155 µM; IC50 (Src; [1]): 133 µM |
